# Assay results taken from paper PMC6597546, “Identification of a potent benzoxaborole drug candidate for treating cryptosporidiosis” (Nature Communications, 2019).
# “And” between values parts separate entries of the source, which are not always exact repeats. Identical values can stand only once. Like-named read-outs stand apart in the source and are kept apart here.
# Columns and labels:
# [1] = system: human lymphocytes; assay: In vitro micronucleus genotoxicity assay; format: cell-based; settings: with and without S9, 3 and 28 h, 0.25 to 260 µg per mL
# [2] = 7-day repeated oral dose toxicity study in rats
# Experimental: A repeated oral dose toxicity and separate toxicokinetics (TK) study were performed in male rats by WuXi AppTec Company (Suzhou, China). […] Animals were individually housed in solid bottom plastic cages with bedding in compliance with the US Animal Welfare Act. All rat studies were performed using ∼8-week-old Sprague-Dawley male rats (Rattus novegicus)/Crl: CD[SD] […] Cage side clinical observations of condition and behavior (i.e., gait, stool, activity level, atonia, coat soiling and grooming, skin turgor, posture, priapism, piloerection) were performed twice daily during the dosing phase, and weights and food consumption were measured daily. At termination, all study animals were evaluated for erythrocyte count, absolute reticulocyte count, alkaline phosphatase, and triglycerides by fasting the animals overnight and obtaining blood from the abdominal aorta at necropsy as a terminal procedure under deep anesthesia (pentobarbital). A complete necropsy and histopathologic studies (hematoxylin and eosin staining) of large intestine, small intestine, stomach, and any gross lesions were performed on all animals on day 7 of dosing. […] Serum was collected from vehicle-control animals at 1 h and 4 h after dosing on days 1 and 7. […] Following completion of blood collection, TK animals were euthanized by CO2 inhalation and exsanguination without necropsy.
# [3] = system: CYP450 (2B6, 1A2, 2C9, 2C19, 2D6, 3A4); assay: CYP450 inhibition, 6 isoforms; format: in vitro ADME; settings: @ 10 µM
# [4] = system: C. parvum; assay: C. parvum growth inhibition in HCT-8 cells (follow-up assay, Vicia villosa lectin staining); format: cell-based, Cryptosporidium parvum
# Experimental: Follow-up assays were performed at the University of Vermont (UVM) and Calibr at Scripps Research by infection of the colonic adenocarcinoma cell line HCT-8 (ATCC CCL-244) and staining with the Vicia villosa lectin and DAPI[17],[32]. The FBS concentrations and parasites used for these assays were as indicated; parasite isolates and sources included C. parvum Iowa isolate oocysts purchased from Bunch Grass Farm (Deary, ID), C. parvum Iowa isolate oocysts purchased from the Sterling Laboratory (University of Arizona, Tucson, AZ), wild type C. parvum oocysts provided by Dr. Jenni Zambriski (Virginia Tech, Blacksburg, VA), and the C. hominis TU502 isolate purchased from Dr. Saul Tzipori (Tufts University Cummings School of Veterinary Medicine, North Grafton, MA). […] Amphotericin B (Sigma, catalog# A2942) was added to the culture media at 0.1 to 0.5 µg per mL for the DMC1 dose response assays.
# [5] = biological target: T1, CYP1A2 (Homo sapiens, UniProt P05177); assay: CYP450 inhibition 1A2; format: in vitro ADME
# T1 sequence (P05177 1-516): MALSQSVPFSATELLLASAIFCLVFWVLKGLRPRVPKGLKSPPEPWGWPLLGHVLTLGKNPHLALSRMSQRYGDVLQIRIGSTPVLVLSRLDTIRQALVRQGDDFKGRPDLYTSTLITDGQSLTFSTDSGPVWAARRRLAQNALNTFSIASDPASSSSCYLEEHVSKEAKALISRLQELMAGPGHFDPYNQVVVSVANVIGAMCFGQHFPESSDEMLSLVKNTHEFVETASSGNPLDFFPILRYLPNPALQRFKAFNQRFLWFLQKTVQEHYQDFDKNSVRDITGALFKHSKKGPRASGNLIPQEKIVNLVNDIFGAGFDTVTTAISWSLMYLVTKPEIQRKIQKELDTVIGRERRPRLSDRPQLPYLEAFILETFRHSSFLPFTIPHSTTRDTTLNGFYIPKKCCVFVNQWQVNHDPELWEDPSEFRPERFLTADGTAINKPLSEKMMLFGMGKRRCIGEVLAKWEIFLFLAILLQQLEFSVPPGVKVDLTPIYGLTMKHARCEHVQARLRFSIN
# [6] = system: C. parvum (Bunch Grass Farms Iowa isolate); assay: Time-kill curve assay in HCT-8 cells; format: cell-based, Cryptosporidium parvum
# Experimental: The invasion assay, DNA replication assay, asexual to sexual stage conversion, and time-kill curve assays were performed using fluorescence microscopy to enumerate parasites and host cell nuclei. Staining protocols are individually described for each assay. Unless noted otherwise, the details of image acquisition were as follows. An inverted Nikon Eclipse Ti2000 microscope with an automated stage and Perfect Focus was used with NIS-Elements Advanced Research software (Nikon, USA, version 4.30.01) to image the wells. The microscope was programmed to focus on the center of each well and then take a 3 × 3 composite image per well using a 20 × (0.45 NA) objective. Images were exported as .tiff files and parasites and host nuclei counted using a custom macro on ImageJ (National Institutes of Health, version 1.52a). Data were analyzed using Microsoft Excel and GraphPad Prism (version 6.01). […] C. parvum Iowa isolate oocysts (Bunch Grass Farms, Deary, ID) were treated to induce excystation and added to >90% confluent HCT-8 cells in 384-well plates. […] The monolayers were then washed, fixed, and stained with Vicia villosa lectin and DAPI at the indicated time points, and imaged as for the C. parvum growth assay. Separate 384-well plates were used for each time point. Parasite numbers were normalized to host cell nucleus numbers and expressed as the percentage of host cells infected. Drug-induced parasite decay was isolated from the reduction in parasites over time that occurs spontaneously in the HCT-8 culture system by expressing the number of parasites as the percentage of the number of parasites present at each time point under control (DMSO-treated) conditions.
structure (smiles),measurement,setting,value
CC1(C)OB(O)c2cc(NC(=O)c3ccc(-n4cccn4)cc3Cl)ccc21 [AN7973],In vitro micronucleus,[1],negative
same,tolerability in rats,"[2]; 80 mg per kg per day oral gavage, seven days, male rats",well tolerated
same,Alkaline phosphatase on day 8,"[2]; 80 mg·kg-1·d-1, mean ± SD",188 ± 17 U·L-1
same,Average weight on day 1,"[2]; 80 mg·kg-1·d-1, mean ± SD",260.24 g
same,Average weight on day 7,"[2]; 80 mg·kg-1·d-1, mean ± SD",305.36 ± 8.8 g
same,Reticulocyte count on day 8,"[2]; 80 mg·kg-1·d-1, mean ± SD",563.2 ± 66.6 ×10^9 per L
same,Total food consumption (days 1-7),"[2]; 80 mg·kg-1·d-1, mean ± SD",156.1 ± 10.1 g
same,Triglycerides on day 8,"[2]; 80 mg·kg-1·d-1, mean ± SD",0.39 ± 0.16 mmol/L
same,Mortality (unscheduled deaths),"[2]; 80 mg·kg-1·d-1, n=5",0
same,"CYP450 inhibition (in 6 isoforms – 2B6, 1A2, 2C9, 2C19, 2D6, 3A4)",[3],Negative
same,EC50,"[4]; Bunch Grass Farm (BGF) C. parvum Iowa isolate, HCT-8 cells, 48 h exposure, read-out: EC50",130 nM
same,EC50,"[4]; Cryptosporidium parvum, HCT-8, in Vicia villosa, 48 h, Bunch Grass Farm (BGF) C. parvum Iowa isolate, HCT-8 cells, 48 h exposure, read-out: EC50",130 to 430 nM
same,EC50,"[4]; Cryptosporidium parvum, HCT-8, in Vicia villosa, Iowa (BGF, 10%FBS), HCT-8, single replicates, unit inferred, read-out: In vitro efficacy (Fig 2b, EC50)",116 nM
same,EC50,"[4]; Cryptosporidium parvum, HCT-8, in Vicia villosa, read-out: In vitro efficacy (Fig 2b, EC50)",363 nM
same,EC90,"[4]; Cryptosporidium parvum, in Vicia villosa, BGF Iowa isolate, HCT-8",210 nM
same,EC50,"[4]; Field isolate (2%FBS), HCT-8, single replicates, unit inferred, read-out: In vitro efficacy (Fig 2b, EC50)",226 nM and 231 nM and 673 nM and 304 nM
same,EC50,"[4]; Iowa (BGF, 2%FBS), HCT-8, single replicates, unit inferred, read-out: In vitro efficacy (Fig 2b, EC50)",459 nM and 606 nM and 233 nM and 334 nM
same,EC50,"[4]; Iowa (BGF, 10%FBS), HCT-8, single replicates, unit inferred, read-out: In vitro efficacy (Fig 2b, EC50)",163 nM and 128 nM
same,EC50,"[4]; Iowa (Sterling Lab, 2%FBS), HCT-8, single replicates, unit inferred, read-out: In vitro efficacy (Fig 2b, EC50)",412 nM and 206 nM and 290 nM and 456 nM and 232 nM
same,"% inhibition, 0 - 48 h V. villosa lectin (asexual)",[4]; log [AN7973] 0.22,97.86% and 96.89%
same,"% inhibition, 0 - 48 h V. villosa lectin (asexual)",[4]; log [AN7973] 0.52,97.05% and 95.66%
same,"% inhibition, 0 - 48 h V. villosa lectin (asexual)",[4]; log [AN7973] 0.70,95.89% and 94.55%
same,"% inhibition, 0 - 48 h V. villosa lectin (asexual)",[4]; log [AN7973] 1.00,95.12% and 93.55%
same,"% inhibition, 0 - 48 h V. villosa lectin (asexual)",[4]; log [AN7973] -0.25,95.71% and 93.12%
same,"% inhibition, 0 - 48 h V. villosa lectin (asexual)",[4]; log [AN7973] -0.73,85.80% and 82.68%
same,"% inhibition, 0 - 48 h V. villosa lectin (asexual)",[4]; log [AN7973] -1.69,-8.97% and -7.81%
same,"% inhibition, 0 - 48 h V. villosa lectin (asexual)",[4]; log [AN7973] -2.16,-1.87% and -6.19%
same,inhibition at 10 µM,[5],1%
same,concentration giving maximum rate of parasite elimination,"[6]; Cryptosporidium parvum, HCT-8, read-out: concentration at which maximum rate of parasite elimination was achieved (∼3 × EC90)",~630 nM
same,time-kill curve result,[6]; compound added ~24 h after infection of HCT-8,appeared to act rapidly and drove progressive elimination of C. parvum
same,% Parasite / host nuclei,"[6]; compound at 3 x EC90, 0 h exposure",25.13% and 23.57% and 25.93% and 26.94%
same,% Parasite / host nuclei,"[6]; compound at 3 x EC90, 6 h exposure",24.78% and 34.35% and 30.89%
same,% Parasite / host nuclei,"[6]; compound at 3 x EC90, 24 h exposure",15.27% and 14.74% and 17.96% and 15.11%
same,% Parasite / host nuclei,"[6]; compound at 3 x EC90, 48 h exposure",20.76% and 12.39% and 18.77% and 13.91%
same,% Parasite / host nuclei,"[6]; compound at 3 x EC90, 72 h exposure",10.40% and 6.55% and 11.33% and 7.26%
same,% Parasite / host nuclei,"[6]; compound at 6 x EC90, 0 h exposure",26.94% and 25.13% and 23.57% and 25.93%
same,% Parasite / host nuclei,"[6]; compound at 6 x EC90, 6 h exposure",28.91% and 27.91% and 32.17% and 31.13%
same,% Parasite / host nuclei,"[6]; compound at 6 x EC90, 24 h exposure",21.47% and 14.00% and 13.65% and 12.46%
same,% Parasite / host nuclei,"[6]; compound at 6 x EC90, 48 h exposure",10.56% and 11.11% and 14.16% and 9.59%
same,% Parasite / host nuclei,"[6]; compound at 6 x EC90, 72 h exposure",5.25% and 6.00% and 13.91% and 10.57%
same,% Parasite / host nuclei,"[6]; compound at 9 x EC90, 0 h exposure",26.94% and 25.13% and 23.57% and 25.93%
same,% Parasite / host nuclei,"[6]; compound at 9 x EC90, 24 h exposure",14.18% and 12.40% and 14.28% and 11.31%
same,% Parasite / host nuclei,"[6]; compound at 9 x EC90, 48 h exposure",12.96% and 14.27% and 16.75% and 18.20%
same,% Parasite / host nuclei,"[6]; compound at 12 x EC90, 0 h exposure",26.94% and 25.13% and 23.57% and 25.93%
same,% Parasite / host nuclei,"[6]; compound at 12 x EC90, 24 h exposure",11.36% and 18.45% and 14.90% and 9.34%
same,% Parasite / host nuclei,"[6]; compound at 12 x EC90, 48 h exposure",10.50% and 12.64% and 5.47% and 10.46%
same,% Parasite / host nuclei,"[6]; compound at 12 x EC90, 72 h exposure",8.81% and 7.07% and 9.43% and 15.51%
same,% Parasite / host nuclei,"[6]; compound at EC50, 0 h exposure",26.94% and 25.13% and 23.57% and 25.93%
same,% Parasite / host nuclei,"[6]; compound at EC50, 6 h exposure",20.18%
same,% Parasite / host nuclei,"[6]; compound at EC50, 24 h exposure",55.77% and 58.71% and 35.00% and 58.88%
same,% Parasite / host nuclei,"[6]; compound at EC50, 48 h exposure",63.82% and 58.60% and 55.54% and 55.88%
same,% Parasite / host nuclei,"[6]; compound at EC50, 72 h exposure",29.51% and 58.62% and 41.28% and 34.71%
same,% Parasite / host nuclei,"[6]; compound at EC90, 0 h exposure",26.94% and 25.13% and 23.57% and 25.93%
same,% Parasite / host nuclei,"[6]; compound at EC90, 24 h exposure",31.22% and 39.05% and 28.47% and 33.72%
same,% Parasite / host nuclei,"[6]; compound at EC90, 48 h exposure",43.81% and 37.66% and 41.76% and 32.99%
same,% Parasite / host nuclei,"[6]; compound at EC90, 72 h exposure",28.05% and 29.96% and 37.03% and 23.24%
same,time required for 99.9% parasite reduction,[6]; in vitro,~92 h
same,in vitro parasite elimination half-life,"[6]; one-phase exponential decay, 12 × EC90, referenced to DMSO control",~9.2 h
